Patent publication US20170112748A1, “N-ACYLPEPTIDE DERIVATIVES AND THEIR USES” (NeoStrata Company, Inc., priority 2012, published 2017)
Peptide text beside a SMILES is read from it.

Key:
[1] = tested on: MB231 breast cancer cells; settings: summary table
Method: A typical in vitro screen for anti-tumor or anti-cancer effects was carried out as follows.
An aliquot of 2,000 MB231 breast cancer cells (breast carcinoma cells) in 100 μl DMEM complete media (Sigma Chemical Co.) was plated in a 96 well plate containing at a concentration of 20 μg/ml a test substance or control water. To measure proliferation of the cancer cells, an aliquot of 20 μl of MTS reagent (Promega Co.) was added to each well and the cells were incubated at 37° C. for a total of three days. The cells rapidly metabolized MTS reagent and the metabolized MTS reagent was measured at 490 nm at the end of days 1, 2 and 3. The reading was proportional to the number of cancer cells. The decrease in absorbance at each time point indicated fewer cancer cells. At the end of day 3, the decrease in absorbance with respect to the control indicated the inhibition by the test substance.

[2] = topical treatment of bilateral inter-metacarpal atrophy of hands; type: in vivo, human; settings: Example 23: subject, 2% (w/v) in EP73 two to three times daily, three weeks
Excerpt: A subject had bilateral inter-metacarpal atrophy of both hands with certain restrictions of hand movements. The subject topically applied two to three times daily N-Ac-L-Tyr-L-Tyr-L-Tyr-OEt, 2% (w/v) in EP73 on the back of their left hand, and vehicle control EP73 on the back of their right hand for three weeks.
The subject now, topically applied twice daily N-Ac-L-Tyr-L-Tyr-L-Tyr-NH2, 1% (w/v) in WEP442 on the back of their left hand as a mantenace therapy.

[3] = topical treatment of chronic inflammation, erythema, eczema with thick scales and itch, clinical evaluation; type: in vivo, human; settings: Example 10: subject, -NH2 0.3% and -OEt 0.5% (w/v) in WEP442
Excerpt: The involved skin was divided into two lesions for testing. The subject topically applied twice daily to one lesion, N-Ac-L-Tyr-L-Tyr-L-Tyr-NH2 0.3% (w/v) in WEP442, pH 5.9 solution composition, prepared according to Example 2, and to second lesion, N-Ac-L-Tyr-L-Tyr-L-Tyr-OEt 0.5% (w/v) in WEP 442, pH 6.0, prepared according to Example 2. […] The treated skin had 90-95% improvement as judged by clinical evaluation.

[4] = topical treatment of telangiectatic rosacea, clinical evaluation; type: in vivo, human; settings: Example 22: subject, face, 1% (w/v) in WEP442 twice daily, two weeks
Excerpt: A subject had rosacea on their face with erythema, inflammation and dilated blood vessels, described as telangiectatic rosacea. The subject topically applied twice daily N-Ac-L-Tyr-L-Tyr-L-Tyr-OEt, 1% (w/v) in WEP442 for two weeks. At the end of two weeks, the erythema and inflammation had diminished, and improvement in rduced size of telangiectatic blood vessels was discernible. The rosacea lesions had approximately 25% improvement as judged by clinical evaluation.

[5] = knee osteoarthritis, intra-articular injections; type: in vivo, human; settings: for duration of relief of pains / period of diminished edema and inflammation of the knees and lower legs / time after injection until pains in both knees disappeared: Example 18: subject; for duration of relief of pains / period of diminished edema and inflammation of the knees and lower legs: intra-articular 1 mg each knee; for time after injection until pains in both knees disappeared: intra-articular 1 mg each knee (-OH 1% in water 0.1 ml; -OEt 0.2% with 1% methyl cellulose 0.5 ml)
Method: A subject had severe osteoarthritis of both knees for more than four years. Prior therapy had included intra-articular injections of corticosteroids and hyaluronic acid as well as celecoxib (Celebrex) orally (200 mg) twice daily. Such therapy had provided only mild transitory relief of knee pain and edema, and edema of lower legs.
Intra-articular injections of 1% (w/v) N-Ac-L-Tyr-L-Tyr-L-Tyr-OH in water, 0.1 ml (1 mg) as prepared in Example 4 were administered to each knee. The pains in both knees disappeared about 20-30 minutes after the injections, and the relief of pains lasted for 24 hours. Edema and inflammation of the knees and lower legs had diminished for approximately the same 24 hour period. Repeat injections of the same composition were administered once a week for several weeks to provide continued relief of pain, edema and inflammation.
In another trial, intra-articular injections of 0.2% (w/v) N-Ac-L-Tyr-L-Tyr-L-Tyr-OEt with 1% (w/v) methyl cellulose in water, 0.5 ml (1 mg) as prepared in Example 4 were also administered to each knee at different times. The pains in both knees disappeared about 20-30 minutes after the injections, and the relief of pains lasted for 24 hours. Edema and inflammation of the knees and lower legs had diminished for approximately the same 24 hour period.
A subject had osteoarthritis of both knees for more than four years. […] Intra-articular injections of each knee with N-Ac-L-Tyr-L-Tyr-L-Tyr-OH, 7-13 mg in aqueous solution had provided substantial relief of pain in the joints for 2-3 days.
(§1) In yet another embodiment, the volunteer subject injected intra-articularly into a knee joint a test composition containing a N-acylpeptide derivative of the present invention to improve and reduce arthritic inflammation and pain of the joint.

[6] = skin plump / skin thickness test after topical application, caliper measurement; type: in vivo, human; settings: for increased skin thickness: 1% (w/v) in WEP442 three times daily
Method: In one of the studies related to skin changes associated with aging, skin thickness was measured by micrometer calipers as follows.
The skin was grasped with a 2×6 cm metal hinge: the internal faces of which were coated with emery cloth to prevent slippage, and manually squeezed to threshold subject discomfort. Combined thickness of two whole-skin layers including thickness of the two hinge leaves was measured with micrometer calipers. Thickness of the two hinge leaves was subtracted to determine the actual thickness of two whole-skin layers. Triplicate measurements on treated sites were done and an average number was used for calculation of the skin thickness.
In other studies, test sites of skin 17 mm in diameter were used, the circular sites were marked with permanent ink. Intervening control sites were also 17 mm in diameter. Thickness of skin of all sites was measured directly by means of an electronic digital caliper. In this instance the jaws of the caliper were opened to 17 mm, applied with pressure to the skin sites and then closed to firm tightness. Thickness of skin was then read off the screen of the calipers. Measurements of all sites were made in triplicates. […]

[7] = knee osteoarthritis, topical maintenance therapy; type: in vivo, human; settings: Example 25: subject, 1% (w/v) in EP73 topically 2-3 times daily on skin covering the knee areas
Excerpt: (§2) In yet another embodiment, the volunteer subject topically applied once or twice daily the test compositions containing N-acylpeptide derivatives of the present invention on the skin site above arthritic joints or painful muscles to provide therapeutic effects for the systemic disorders via topical administration.

[8] = summary of test results in volunteer subjects, efficacy grades; type: in vivo, human; settings: efficacy grade
Excerpt: Subject 1. Person had multiple red and itchy inflammation, dermatitis, or eczema lesions, which were resistant to conventional treatments including corticosteroids. Subject 2. Person had small red and itchy lesions which were resistant to topical corticosteroid treatment. Subject 3. Person had multiple red and itchy inflammation, dermatitis, or eczema lesions over the body for many years, which were resistant to conventional treatments including corticosteroids. Subject 4. Person had red and itchy inflammation, dermatitis, or eczema lesions for many years, which were resistant to topical corticosteroid treatment. Subject 5. Person had early stage of aging related skin changes on both forearms as indicated by age spots and wrinkled skin caused by solar damage. Subject 6. Person had age spots, keratoses and wrinkles on both forearms caused by intrinsic and extrinsic aging. Subject 7. Person had age spots, and wrinkles on both forearms caused by intrinsic and extrinsic aging. Subject 8. Person had osteoarthritis of both knees with inflammation and pain for more than 4 years, and had only mild transitory relief from conventional treatments. Subject 9. Person had sensitive skin with inflammatory lesions on the body. Subject 12. Person had dermatitis and inflammatory lesions on the left palm. Subject 14. Person had multiple age spots including lentigines and keratosis on their face. Subject 15. Person had psorisis Subject 16. Person had sensitive skin and eczema for more than 40 years
In another embodiment, the volunteer subject topically applied the test compositions containing N-acylpeptide derivatives of the present invention on involved skin or lesions once or twice daily for several weeks or until the involved lesions completely cleared and clinically changed to normal skin. As a control study, the subject also topically applied a vehicle control composition on the involved skin or lesions twice daily for the same period.
as §2, §1
Some test results are summarized as follows.
DK: Disturbed keratinization AG: Aging related changes of skin, nail and hair DI: Deranged immune disorders and inflammation ND: Nerve disorders CA: Tumors and/or cancers

[9] = urination (diuretic effect) after topical application on forehead; type: in vivo, human; settings: Example 17: subject, 0.2% in WEP442 on forehead, about one hour later; repeated next day with same result
Excerpt: The subject then topically applied N-Ac-L-Tyr-L-Tyr-L-Tyr-OH, 0.2% in WEP442 on their forehead. […] The subject repeated the same procedure the next day, and obtained the same result.

[10] = skin thickness after intradermal injection on the forearms; type: in vivo, human; settings: Example 15: subject, intradermal 0.05 ml (0.5 mg) of 1% in water, after 8 days
Method: In other studies, test sites of skin 17 mm in diameter were used, the circular sites were marked with permanent ink. Intervening control sites were also 17 mm in diameter. Thickness of skin of all sites was measured directly by means of an electronic digital caliper. In this instance the jaws of the caliper were opened to 17 mm, applied with pressure to the skin sites and then closed to firm tightness. Thickness of skin was then read off the screen of the calipers. Measurements of all sites were made in triplicates.
A typical systemic administration by intradermal injection was carried out as follows. A subject, injected intradermally on the forearms the following N-acylpeptide derivative of the present invention:
(a). N-Ac-L-Tyr-L-Tyr-L-Tyr-OH, 0.05 ml (0.5 mg) of 1% in water, after 8 days, there was 10-20% increase in skin thickness of 6 mm size skin at the injection site: effective for aging skin. (b). N-Ac-L-Ala-L-Leu-L-Lys-L-His-L-Arg-NH2 (SEQ ID NO: 51), 0.05 ml (0.5 mg) of 1% in water. (c). N-Bz-L-Ala-L-Leu-L-Lys-L-His-L-Arg-NH2 (SEQ ID NO: 65), 0.05 ml (0.5 mg) of 1% in water. (d). N-Ac-(EEASPEAVAGVGFESK)-NH2 (SEQ ID NO: 126), 0.1 ml (0.4 mg) of 0.4% in water.

Compound: CC(=O)N[C@@H](CCC(=O)O)C(=O)N[C@@H](CCC(=O)O)C(=O)N[C@@H](C)C(=O)N[C@@H](CO)C(=O)N1CCC[C@H]1C(=O)N[C@@H](CCC(=O)O)C(=O)N[C@@H](C)C(=O)N[C@H](C(=O)N[C@@H](C)C(=O)NCC(=O)N[C@H](C(=O)NCC(=O)N[C@H](C(=O)N[C@@H](CCC(=O)O)C(=O)N[C@@H](CO)C(=O)N[C@@H](CCCCN)C(N)=O)c1ccccc1)C(C)C)C(C)C [N-Ac-(EEASPEAVAGVGBESK)-NH2] (HELM PEPTIDE1{[ac].E.E.A.S.P.E.A.V.A.G.V.G.[Phg].E.S.K.[am]}$$$$V2.0)
- CA (Tumors and/or cancers) [1]: 9% Inhibition

Compound: N-Ac-L-Tyr-L-Tyr-L-Tyr-OEt
- inter-metacarpal atrophy of left hand [2]: disappeared almost completely
- itch [3]: stopped within a few minutes
- improvement of rosacea lesions as judged by clinical evaluation [4]: approximately 25%
- duration of relief of pains [5]: 24 h
- period of diminished edema and inflammation of the knees and lower legs [5]: ~24 h
- time after injection until pains in both knees disappeared [5]: 20 to 30 min
- increase in skin thickness ([6]; Example 9: subject, severe photodamage, forearm spots, 0.5% (w/v) in WEP721 (spot A in WEP442) four times daily, 10 days): 20-30%
- increase in skin thickness ([6]; Example 19: subject, right extensor forearm, 0.8% (w/v) in WEP442 three times daily, four weeks): approximately 33%
- skin condition of test site vs vehicle control ([6]; Example 20: subject, photoaging forearms, 0.5% (w/v) in WEP442 three times daily, four weeks): palpably raised, smooth, less wrinkled and increased in skin thickness
- increased skin thickness ([6]; Example 20: subject, photoaging forearms, four weeks): approximately 12%
- skin thickness on the back of left hand (average) ([6]; Example 24: subject, 2% (w/v) in EP73 two to three times daily, six weeks, starting thickness 1.70 mm): 2.59 mm
- increase over the starting skin thickness ([6]; Example 24: subject, back of left hand, 2% (w/v) in EP73 two to three times daily, six weeks): 52%
- knee joint pain under maintenance therapy [7]: continued relief of knee joint pains
- AG: Aging related changes of skin, nail and hair [8]: 3+ (3+: 75% Efficacy)
- DI: Deranged immune disorders and inflammation [8]: 3+ (3+: 75% Efficacy)
- DK: Disturbed keratinization [8]: 3+ (3+: 75% Efficacy)
- ND: Nerve disorders [8]: 4+ (4+: 95-100% Efficacy)

Compound: N-Ac-L-Tyr-L-Tyr-L-Tyr-OH
- urination [9]: urge for urination
- increase in skin thickness of 6 mm size skin at the injection site [10]: 10-20%
- duration of relief of pains [5]: 24 h
- period of diminished edema and inflammation of the knees and lower legs [5]: ~24 h
- time after injection until pains in both knees disappeared [5]: 20 to 30 min
- duration of substantial relief of pain in the joints ([5]; Example 25: subject, intra-articular 7-13 mg in aqueous solution each knee): 2 to 3 days
- increased skin thickness ([6]; Example 21: subject, sun damaged forearms, one week): approximately 29%
- AG: Aging related changes of skin, nail and hair [8]: 2+ (2+: 50% Efficacy)
- DI: Deranged immune disorders and inflammation [8]: 3+ (3+: 75% Efficacy)
- DK: Disturbed keratinization [8]: 2+ (2+: 50% Efficacy)
- ND: Nerve disorders [8]: 3+ (3+: 75% Efficacy)
